In publication PMC10247784, “Physiological activation of human and mouse bitter taste receptors by bile acids” (Communications Biology, 2023):

Biological target: T1, mouse Tas2r105 (Mus musculus, UniProt Q9JKT4)
T1 construct: expressed in transfected cells; host or cells: HEK293T-Gα16gust44
T1 sequence (Q9JKT4 1-300): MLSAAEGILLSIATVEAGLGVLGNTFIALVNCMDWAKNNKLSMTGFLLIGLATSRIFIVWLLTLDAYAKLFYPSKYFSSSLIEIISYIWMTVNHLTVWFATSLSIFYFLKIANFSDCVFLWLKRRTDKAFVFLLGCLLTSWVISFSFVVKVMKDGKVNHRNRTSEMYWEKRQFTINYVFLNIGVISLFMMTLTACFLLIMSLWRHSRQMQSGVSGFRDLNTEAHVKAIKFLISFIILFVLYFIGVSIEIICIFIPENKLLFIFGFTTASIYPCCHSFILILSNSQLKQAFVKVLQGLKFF
Test: Calcium imaging assay (FLIPR), HEK293T-Gα16gust44 cells transfected with mouse Tas2r105
Type: cell-based
Procedure: This set of bile acids was chosen because of their commercial availability in high purities, their diversity within the class of bile acids and their previous detection and quantitation in human blood. Stock solutions were prepared in DMSO.
As basal growth medium for the HEK293T-Gα16gust44 cell line[17],[59] served Dulbecco’s modified eagle medium (DMEM) (Thermo Fisher Scientific, Darmstadt, Germany) supplemented with 10 % fetal bovine serum (Sigma-Aldrich, Steinheim, Germany), 2 mM L-glutamine (Sigma-Aldrich, Steinheim, Germany), 100 units/ml penicillin (Sigma Aldrich, Steinheim, Germany) and 100 µg/ml streptomycin (Sigma Aldrich, Steinheim, Germany). Growth conditions were 37 °C, 5 % CO2 and saturated air-humidity[60].
HEK293T-Gα16gust44 cells were seeded on poly-D-lysine (10 µg/ml) coated 96-well plates to reach a confluence of 40-60 % the next day. For transient transfection 150 ng of plasmid DNA containing the receptor of interest and 0.3 µl lipofectamine 2000 (Thermo Fisher Scientific, Darmstadt, Germany) per well were used and transfection took place according to the manual of lipofectamine 2000. […] The empty vector DNA (mock) was transfected as negative control[14],[41].
Cells were loaded using the calcium-sensitive fluorescent dye Fluo-4-AM (Abcam, Cambridge, Great Britain) in the presence of 2.5 mM probenecid (Sigma-Aldrich, Steinheim, Germany) the day after transfection[13],[41]. 1 h after loading, cells were washed with C1 buffer using a BioTek Cell Washer, incubated in the dark for half an hour and washed again. For automated agonist application and measurement of fluorescence changes, a FLIPR^TETRA device (Molecular Devices, San José, United States) was used. Viability of cells was tested by application of 100 nM Somatostatin 14 (Bachem, Bubendorf, Switzerland)[42].
Measured data were negative control corrected by subtracting the signal of the mock-transfected cells and exported to Microsoft Excel using the FLIPR software ScreenWorks 4.2. In Microsoft Excel software, standardization of maximum fluorescence intensities to the basal fluorescence and normalization to the buffer-only control was done to calculate the relative fluorescence changes (ΔF/F).
Initial screening experiments performed in duplicate wells were confirmed by at least one replication and representative traces were selected for display. All dose-response relationships were determined by three independent experiments (biological replicates) performed in duplicates (technical replicates). Threshold concentrations, defined as lowest substance concentrations leading to statistically significant elevated fluorescence changes in receptor-transfected cells compared with empty vector-transfected cells, were determined using SigmaPlot with Student’s t-test to evaluate statistical significance (p < 0.01).

C[C@H](CCC(=O)O)[C@H]1CC[C@H]2[C@@H]3[C@H](O)C[C@@H]4C[C@H](O)CC[C@]4(C)[C@H]3C[C@H](O)[C@]12C [Cholic Acid, cholic acid]
RLU (Time 0 s): 0 RLU | RLU (Time 2 s): 1.777 RLU | RLU (Time 4 s): 7.834 RLU | RLU (Time 6 s): 2.675 RLU | RLU (Time 8 s): 9.829 RLU | RLU (Time 12 s): -3.285 RLU | RLU (Time 14 s): -7.0734 RLU | RLU (Time 16 s): 15 RLU | RLU (Time 18 s): 44.4226 RLU | RLU (Time 18.781 s): 21.6772 RLU | RLU (Time 20.781 s): 9.429 RLU | RLU (Time 22.781 s): 39.5966 RLU | RLU (Time 24.781 s): 10.8272 RLU | RLU (Time 26.781 s): 50.2337 RLU | RLU (Time 28.781 s): 59.2009 RLU | RLU (Time 30.781 s): 49.6279 RLU | RLU (Time 32.781 s): 86.2126 RLU | RLU (Time 34.781 s): 65.8416 RLU | RLU (Time 36.781 s): 100.025 RLU | RLU (Time 38.781 s): 89.1237 RLU | RLU (Time 40.781 s): 115.541 RLU | RLU (Time 42.781 s): 131.095 RLU | RLU (Time 44.781 s): 139.548 RLU | RLU (Time 46.781 s): 164.231 RLU | RLU (Time 48.781 s): 193.51 RLU | RLU (Time 50.781 s): 193.303 RLU | RLU (Time 52.781 s): 217.91 RLU | RLU (Time 54.781 s): 257.63 RLU | RLU (Time 56.781 s): 273.677 RLU | RLU (Time 58.781 s): 284.724 RLU | RLU (Time 60.781 s): 322.244 RLU | RLU (Time 62.781 s): 314.427 RLU | RLU (Time 64.781 s): 342.91 RLU | RLU (Time 66.781 s): 375.793 RLU | RLU (Time 68.781 s): 398.01 RLU | RLU (Time 70.781 s): 424.457 RLU | RLU (Time 72.781 s): 449.971 RLU | RLU (Time 74.781 s): 470.44 RLU | RLU (Time 76.781 s): 487.87 RLU | RLU (Time 78.781 s): 480.774 RLU | RLU (Time 80.781 s): 513.812 RLU | RLU (Time 82.781 s): 513.576 RLU | RLU (Time 84.781 s): 531.991 RLU | RLU (Time 86.781 s): 549.947 RLU | RLU (Time 88.781 s): 553.294 RLU | RLU (Time 90.781 s): 575.612 RLU | RLU (Time 92.781 s): 557.955 RLU | RLU (Time 94.781 s): 575.485 RLU | RLU (Time 96.781 s): 548.118 RLU | RLU (Time 98.781 s): 585.897 RLU | RLU (Time 100.781 s): 576.152 RLU | RLU (Time 102.781 s): 586.681 RLU | RLU (Time 104.781 s): 569.701 RLU | RLU (Time 106.781 s): 551.409 RLU | RLU (Time 108.781 s): 564.279 RLU | RLU (Time 110.781 s): 542.028 RLU | RLU (Time 112.781 s): 544.652 RLU | RLU (Time 114.781 s): 548.979 RLU | RLU (Time 116.781 s): 550.607 RLU | RLU (Time 118.781 s): 555.391 RLU | RLU (Time 120.781 s): 575.811 RLU | RLU (Time 122.781 s): 538.707 RLU | RLU (Time 124.781 s): 581.753 RLU | RLU (Time 126.781 s): 520.313 RLU | RLU (Time 128.781 s): 519.484 RLU | RLU (Time 130.781 s): 535.938 RLU | RLU (Time 132.781 s): 507.19 RLU | RLU (Time 134.781 s): 533.269 RLU | RLU (Time 136.781 s): 500.116 RLU | RLU (Time 137.578 s): 523.788 RLU | RLU (Time 143.578 s): 484.404 RLU | RLU (Time 149.578 s): 476.256 RLU | RLU (Time 155.578 s): 501.067 RLU | RLU (Time 161.578 s): 504.009 RLU | RLU (Time 167.578 s): 489.395 RLU | RLU (Time 173.578 s): 450.925 RLU | RLU (Time 179.578 s): 464.442 RLU | RLU (Time 185.578 s): 417.045 RLU | RLU (Time 191.578 s): 421.394 RLU | RLU (Time 197.578 s): 391.24 RLU | RLU (Time 203.578 s): 344.694 RLU | RLU (Time 209.578 s): 358.293 RLU | RLU (Time 215.578 s): 343.137 RLU | RLU (Time 221.578 s): 329.589 RLU | RLU (Time 227.578 s): 339.83 RLU | RLU (Time 233.578 s): 325.692 RLU | RLU (Time 239.578 s): 315.743 RLU | RLU (Time 245.578 s): 313.71 RLU | RLU (Time 293.578 s): 197.324 RLU | RLU (Time 299.578 s): 152.865 RLU | RLU (Time 305.578 s): 156.643 RLU | RLU (Time 311.578 s): 134.046 RLU | RLU (Time 317.578 s): 124.601 RLU | RLU (Time 323.578 s): 131.88 RLU | RLU (Time 329.578 s): 133.734 RLU | RLU (Time 335.578 s): 174.038 RLU | RLU (Time 341.578 s): 165.309 RLU | RLU (Time 347.578 s): 173.556 RLU | RLU (Time 353.578 s): 191.675 RLU | RLU (Time 359.578 s): 226.638 RLU | Activation threshold concentration Tas2r105 (p < 0.01 vs empty vector): 300 µM
